Molecular target: T1, Human Neutrophil Elastase (HNE) (Homo sapiens, UniProt P08246)
T1 construct: Human Neutrophil Elastase (HNE) purified from serum; purchased Calbiochem 324681; host or cells: natural human material (serum)
T1 sequence (P08246 30-247 limits assumed): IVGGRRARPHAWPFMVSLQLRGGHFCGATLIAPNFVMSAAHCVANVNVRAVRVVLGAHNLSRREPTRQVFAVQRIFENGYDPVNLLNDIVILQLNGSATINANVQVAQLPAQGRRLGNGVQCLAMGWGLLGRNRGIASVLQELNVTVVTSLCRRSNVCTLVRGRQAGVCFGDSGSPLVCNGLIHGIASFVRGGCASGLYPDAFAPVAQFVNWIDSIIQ
Experiment: Human Neutrophil Elastase Quenched-FRET Assay
Format: biochemical
Settings: HNE purified from serum; substrate MeOSuc-AAPV-AMC; 15 min preincubation, 30 min incubation at room temperature; read-out: Inhibition of Human Neutrophil Elastase IC50
Method: Human Neutrophil Elastase Quenched-FRET Assay
The assay uses Human Neutrophil Elastase (HNE) purified from serum (Calbiochem art. 324681; Ref. Baugh, R. J. et al., 1976, Biochemistry. 15, 836-841). HNE was stored in 50 mM NaOAc, 200 mM NaCl, pH 5.5 with added 30% glycerol at −20° C. The protease substrate used was Elastase Substrate V Fluorogenic, MeOSuc-AAPV-AMC (Calbiochem art. 324740; Ref. Castillo, M. J. et al., 1979, Anal. Biochem. 99, 53-64). The substrate was stored in DMSO at −20° C. The assay additions were as follows: Test compounds and controls were added to black 96-well flat-bottom plates (Greiner 655076), 1 μL in 100% DMSO, followed by 30 μL HNE in assay buffer with 0.01% TritonX-100. The assay buffer constitution was: 100 mM Tris (pH 7.5) and 500 mM NaCl. The enzyme and the compounds were incubated at room temperature for 15 minutes. Then 30 μl substrate in assay buffer was added. The assay was stopped after 30 minutes incubation at room temperature by adding 60 μl stop solution (140 mM acetic acid, 200 mM sodium monochloroacetate, 60 mM sodium acetate, pH 4.3). Fluorescence was measured on a Wallac 1420 Victor 2 instrument at settings: Excitation 380 nm, Emission 460 nm. IC50 values were determined using Xlfit curve fitting using model 205.

IC50 | SMILES
500 nM | O=C(NCc1ccc(F)c(F)c1)c1cc2ccccc2n(-c2cccc(C(F)(F)F)c2)c1=O [Example 2.26, N-(3,4-Difluorobenzyl)-2-oxo-1-[3-(trifluoromethyl)phenyl]-1,2-dihydroquinoline-3-carboxamide]
390 nM | O=C(NCC1COc2ccccc2O1)c1cc2ccccc2n(-c2cccc(C(F)(F)F)c2)c1=O (stereo not drawn) [Example 2.51, N-(2,3-Dihydro-1,4-benzodioxin-2-ylmethyl)-2-oxo-1-[3-(trifluoromethyl)phenyl]-1,2-dihydroquinoline-3-carboxamide]
320 nM | CC(=O)Nc1ccc(CNC(=O)c2cc3ccccc3n(-c3cccc(C(F)(F)F)c3)c2=O)cc1 [Example 2.66, N-[4-(Acetylamino)benzyl]-2-oxo-1-[3-(trifluoromethyl)phenyl]-1,2-dihydroquinoline-3-carboxamide]

— patent publication US20070010551A1, “Quinoline derivatives as neutrophil elastase inhibitors and their use” (priority 2003, published 2007)
